Reference: patent US20130178536A1, “SUBSTITUTED CIS- AND TRANS-STILBENES AS THERAPEUTIC AGENTS” (STC.UNM, priority 2006, published 2013)

Experiments:
Type in all cases: in vivo, mouse
Aβ plaques [1] = test: MRI-detected plaques in brains of AD transgenic mice with anti-APP SPIONs; settings: for Decline in number of plaques per brain: 100 ppm in diet, 1 year, MRI
Description: (§1) B6C3 transgenics (Jackson Laboratory) were used. These double transgenic mice express a chimeric mouse/human amyloid precursor protein (Mo/HuAPP695swe) and a mutant human presenilin 1 (PS1-dE9) both directed to CNS neurons. Both mutations are associated with early-onset Alzheimer's disease. The “humanized” Mo/HuAPP695swe transgene allows the mice to secrete a human Ab peptide. The included Swedish mutations (K595N/M596L) elevate the amount of Ab produced from the transgene by favoring processing through the beta-secretase pathway. Transgenic mice develop beta-amyloid deposits in brain by six to seven months of age. These animals also display a slight alteration in their tail phenotype that is believed to be due to the mixed genetic background of the strain and is not related to transgene expression. These mice are useful in studies of neurological disorders of the brain, specifically Alzheimer's disease, amyloid plaque formation.
(§2) Female B6C3 transgenics were used. Animals were housed 5/cage and fed ad libitum. Groups included controls, RV groups, compound 1 groups and compound 2 groups. Each group was comprised of 15 animals. Diets contained standard dyes to provide different colors to each diet to avoid confusion during the 12 months feeding.
Transgenic mice carrying mutated APP and presenilin-1 were fed this diet. It was observed early on that compound 2a (4cc) was toxic. Therefore, it was discontinued in the study. […] Twenty four hrs before sacrifice, SPIONs were injected via the tail vein. […]
Pilot MRI studies of this line of transgenic mice were carried out at three magnetic field strengths: at 4.7 Tesla, at the UNM BRaIN Imaging Center, and at 9.4 and 16.4 Tesla at the Center for Magnetic Resonance Research at the University of Minnesota. […] One hundred ninety two MRI slices were analyzed by counting plaques in each slice, and by computing the statistical significance of the intensity in the hypointense plaque core versus the noise level in the surrounding tissue. […]

activated microglia = test: Activated microglia density and radial distribution in brains of AD transgenic mice (Iba-1 staining); settings: for Areal density of activated microglia: 100 ppm in diet, 1 year, mean±S.E.M., p<0.001, untreated 86.1±2.8; for Decrease in areal density of activated microglia: vs untreated transgenic mice
Description: as §1, §2
(§3) Transgenic mice carrying mutated APP and presenilin-1 were fed this diet. It was observed early on that compound 2a (4cc) was toxic. Therefore, it was discontinued in the study. […] Twenty four hrs before sacrifice, SPIONs were injected via the tail vein. […] The MRI conspicuity of the plaques increased from a Z-score (signal to noise ratio) of 4.6±0.6 to 8.0±0.1 when the plaque Z-score was compared in control AD mice with AD mice treated with nanoparticles. The number of MRI-visible plaques per brain increased from 355±39 in the control AD mice, to 668±52 in the SPION treated mice.
Paraffin embedded brain sections were rehydrated by progressively immersing them in Hemo-De, 95% EtOH, 70% EtOH and finally 0.1M PBS. Antigens were retrieved by placing the slides in 6.0 pH 0.01 M sodium citrate buffer with heating to 90° C. for 20 minutes. After cooling to r.t., the slides were stained with Thioflavin-S as above. After rehydrating with 0.1M PBS for 5 minutes, the slides were blocked with 0.1M PBS containing 6% normal donkey serum for 45 minutes and then incubated overnight with rabbit anti-Iba-1, diluted 1:400, at 4° C. in a humidity chamber. The next day the slides were washed three times with 0.1M PBS. The secondary antibody, rhodamine-conjugated donkey anti-rabbit IgG, was diluted with 0.5% BSA in 0.1M PBS to 1:200 under light-restricted conditions. 100 μl of this secondary antibody solution was applied to each brain slice for 2 h in a light-tight container at r.t. The slides were then rinsed three times with 0.1M PBS and twice with dd water. Vectashield with DAPI was applied and the slides were cover-slipped and sealed for imaging. Images were taken with a Zeiss Axioskop 2 equipped with a Zeiss AxioCam and a Prior Lumen 200 fluorescence lamp (Cancer Center Fluorescence Microscopy Facility, University of New Mexico, Albuquerque, N. Mex., USA, http://hsc.unm.edu/crtc/microscopy/). Images were processed using Slidebook (Denver, Colo.). Confocal images were taken and processed using Zen (Carl Zeiss MicroImaging GmbH, Germany).
(§4) Plaque number and area were measured on the CCD images of the IHC brain sections with the aid of ImageJ software (NIH) by thresholding and conversion of the images to binary images. The radial sizes of the plaques were measured using ImageJ on Thioflavin-S stained fluorescence micrographs of brain sections. The radial distributions of activated microglia were measured on spatially calibrated fluorescence micrographs of Iba-1 stained brain sections using the center of the plaque as the local point of reference and the center of the DAPI-stained microglial nucleus as the endpoint. […]

Aβ plaques [2] = test: Areal density of Aβ plaques in brains of AD transgenic mice (Thioflavin-S histology); settings: for Plaque areal density: 100 ppm in diet, 1 year, mean±S.E.M., p<0.001, untreated 79.8±2.4; for Decrease in plaque areal density: vs untreated transgenic mice
Description: as §1, §2, §3
Paraffin embedded brain sections were rehydrated by progressively immersing them in Hemo-De, 95% EtOH, 70% EtOH and finally 0.1M PBS. […] Images were taken with a Zeiss Axioskop 2 equipped with a Zeiss AxioCam and a Prior Lumen 200 fluorescence lamp (Cancer Center Fluorescence Microscopy Facility, University of New Mexico, Albuquerque, N. Mex., USA, http://hsc.unm.edu/crtc/microscopy/). […]
as §4

Compound	Decline in number of plaques per brain (Aβ plaques [1])	Total number of MRI-determined plaques (Aβ plaques [1]; fed over entire life span, anti-APP SPIONs for 24 hours, SPION control n=668)	Proximal halo of microglia around plaques (activated microglia) [µm]	Areal density of activated microglia (activated microglia) [microglia/mm^2]	Decrease in areal density of activated microglia (activated microglia) [%]	Plaque areal density (Aβ plaques [2]) [plaques/mm^2]	Decrease in plaque areal density (Aβ plaques [2]) [%]
COc1ccc(/C=C/c2ccccc2F)cc1 [1a (LD-55)]	3-6 fold	209	24	44.2±3.2	49	55.4±4.8	31
Oc1ccc(/C=C/c2cc(O)cc(O)c2)cc1 [Resveratrol, reference compound]	3-6 fold	–	17	34.7±1.8	60	51.8±2.4	35
